Reference: patent publication US5135917A, “Interleukin receptor expression inhibiting antisense oligonucleotides” (Nova Pharmaceutical Corporation, priority 1990, dated 1992)

Columns and labels:
Assay type in all cases: cell-based
Murine Swiss 3T3 cells = assay: IL-1 stimulated prostaglandin E2 synthesis, murine fibroblasts; conditions: oligonucleotides 30 μm for 48 hours, then IL-1β 10 μ/ml for 6 hours, control 60
Protocol: (§1) 1. IL-1 stimulated prostaglandin E2 synthesis.
(§2) Effects of expression of IL-1 receptors by murine and human fibroblasts were assessed as follows Murine Swiss 3T3 cells (American Type Culture Collection ATCC CCL 92) or human dermal fibroblasts (primary culture) were grown in 96-well plates in Dulbecco's modified Eagles medium containing either 10% calf serum or 10% fetal bovine serum, respectively (Grand Island Biological Company), to confluency. The culture medium was replaced with identical medium except that the serum had been heat-inactivated at 65° C. for 15 minutes to inactivate nucleases. Oligonucleotides (30 μm) were added to the cultures and incubated for 48 hours. […] Oligonucleotides (phosphorothioates) S0-1, S0-2 and S0-3 are antisense to murine IL-1 receptor DNA and S0-6 is antisense to human IL-1 receptor DNA.

human dermal fibroblasts [1] = assay: IL-1 stimulated prostaglandin E2 synthesis, human fibroblasts; conditions: Human cells; oligonucleotides 30 μm for 48 hours, then IL-1β 10 μ/ml for 6 hours; control 25
Protocol: as §1, §2

human dermal fibroblasts [2] = assay: Liposome delivery, IL-1 stimulated PGE2 in human dermal fibroblasts; conditions: liposomes; S0-6 30 μM; IL-1 10 U/ml for 4 hours; control (empty liposome) 65
Protocol: For the experiment human dermal fibroblasts were incubated for 18 hours with IL-1, 100 u/ml., to down-regulate existing receptors. The cells were then rinsed three times with phosphate-buffered saline containing 2 mM calcium and 0.1 mM magnesium to remove IL-1, then incubated 30 minutes. Liposomes were then added and the mixture was incubated for 30 minutes. Finally, polyethylene glycol (M.W.6000) was added for 1 minute, then the cultures were rinsed three times in culture medium. Cultures were incubated for eight hours, then stimulated with IL-1, 10 U/ml for 4 hours. Media were collected for radioimmunoassy of PGE2.

With “IL-1: cytokine interleukin 1, used as stimulus of prostaglandin E2 synthesis” the “PGE2, pg/well” value (Murine Swiss 3T3 cells) was 375 pg/well, the “PGE2, pg/well” value (human dermal fibroblasts [1]) was 285 pg/well and the “PGE2, pg/well” value (human dermal fibroblasts [2]) was 398 pg/well.
